The record followed here is patent US10988457B2, “TLR inhibitors” (Insilico Medicine IP Limited, priority 2019, dated 2021).

The test system of experiment [1] is TLR7/8. Description: TLR7/8 Inhibition Assay IC50 in human PBMC's, cytokine release after CL075 stimulation (Luminex). It is filed as cell-based. The settings on record: human PBMC's from one donor, CL075 2 μg/mL, 24 hours, eight concentrations 0.01-100 μM. How it is done:
Cryopreserved human PBMC's were drip-thawed. Cells were diluted to the appropriate density (1×10^5 per well) and seeded into 96-well polypropylene plates with 150 μL per well of culture medium (RPMI 1640, 10% heat-inactivated FBS, 1% penicillin/streptomycin, 2 mM L-glutamine) for compound test wells.
Consequently, the final DMSO vehicle concentration in the assay was from 1 to 0.5%.
Than plates were centrifuged at 200×g for 10 minutes. […] Cytokine levels in each sample were determined using Luminex methodology, per the manufacturer's protocol.
The interpolated data were then normalized to the vehicle or unstimulated control.
Outlier calculation was performed using the Grubbs maximum normed residual test.
Eight test compounds were evaluated for their ability to inhibit the TLR7/8 in PBMC's from one human donor following incubation of 24 hours.

The test system of experiment [2] is TLR7/8. The settings on record: reference compound 100 nM, CL075 2 μg/mL, human PBMC's, 24 hours. How it is done:
Namely, in the present experiment their ability was evaluated to inhibit TLR7/8 in human PBMC's, as measured by the release of specific cytokines. The following cytokines were measured for a complete cytokine response profile (no dilution of samples): IL-1β, IL-6, IL-12p40, TNFα and IFNα.
Levels of each cytokine induction were interpolated from standard curves using a 5-parameter non-linear regression analysis, where y=(A+((B−A)/(1+(((B−E)/(E−A))*((x/C)^D))))). The interpolated data were then normalized to the vehicle control. Percent of control (PoC) was also calculated using the formula, PoC=(test sample/positive vehicle control)×100.
Cryopreserved human PBMC's were drip-thawed. Cells were diluted to the appropriate density (1×10^5 per well) and seeded into 96-well polypropylene plates with 150 μL per well of culture medium (RPMI 1640, 10% heat-inactivated Fetal Bovine Serum (FBS), 1% penicillin/streptomycin, 2 mM L-glutamine) for compound test wells. For the control wells, cells (1×10^5 per well) were plated in 150 μL per well of culture medium.
Cells were incubated at 37° C., 5% CO2 for 1 hour prior to the addition of test compounds or controls.
Test compounds were solubilized in DMSO to make 20× stock solutions, then diluted further with cell culture medium.
Test compounds were added to the PBMC's in volumes of 10 μL and incubated for 1 hour at 37° C., 5% CO2. Compounds were tested in duplicates at final assay concentrations of 10 μM.
Plates were incubated at 37° C., 5% CO2 for 24 hours. Plates were centrifuged at 200×g for 10 minutes. Cell culture supernatants were collected and stored at −80° C. until needed for analysis.
Harvested cell culture supernatants were measured for IL-1β, IL-6, IL-12p40, TNFα and IFNα release to assess dual TLR7/8 inhibition.

Where [3] appears, read: read-out: IC50 levels for test compounds, IFNα.
The mark [4] stands for this setting: read-out: IC50 levels for test compounds, IL-1β.
Setting [5] is: read-out: IC50 levels for test compounds, L-6.
Where [6] appears, read: read-out: IC50 levels for test compounds, L-12p40.
Where [7] appears, read: read-out: IC50 levels for test compounds, TNFα.

Like-named read-outs stand apart in the source and are kept apart here. Some results are limits rather than exact numbers.

As to `N#Cc1ccc(N2CCCC(C(=O)NCCN3CCc4ccccc43)C2)c(F)c1` (stereo not drawn) [Compound 15], the IC50 (as a rule, the concentration that inhibits the measured activity by half) in experiment [1] (setting [3]) was over 20 µM; in experiment [1] (setting [4]), at most 10 µM; in experiment [1] (setting [5]) it was over 20 µM; in experiment [1] (setting [6]), 10 to 20 µM; in experiment [1] (setting [7]) it was over 20 µM.
Consider `C[C@@H]1C[C@H]2[C@@H]3CCC4=CC(=O)C=C[C@]4(C)[C@@]3(F)[C@@H](O)C[C@]2(C)[C@@]1(O)C(=O)CO` [Dexamethasone, dexamethasone], for which, in experiment [2], the “TLR7/8 Inhibition, IFNα (POC %)” value amounted to 26.1%; the “TLR7/8 Inhibition, IL-1β (POC %)” value came out at 26.8%; the “TLR7/8 Inhibition, IL-6 (POC %)” value worked out at 34.7%; the “TLR7/8 Inhibition, IL-12p40 (POC %)” value was determined as 34.2%. For the same compound, in experiment [2], the “TLR7/8 Inhibition, TNFα (POC %)” value was 95.2%.
For the compound `COc1ccc2c(c1)CCN(CCNC(=O)C1CCCN(c3ccc(C#N)cc3F)C1)C2` (stereo not drawn) [Compound 25], the IC50 in experiment [1] (setting [3]) is at most 10 µM; in experiment [1] (setting [4]), over 20 µM; in experiment [1] (setting [5]) it was at most 10 µM; in experiment [1] (setting [6]), 10 to 20 µM; in experiment [1] (setting [7]), over 20 µM.
As to `COc1ccc2c(c1)CCN(CCNC(=O)C1CCCN(c3ccc(C#N)cc3)C1)C2` (stereo not drawn) [Compound 24], the IC50 in experiment [1] (setting [3]) is at most 10 µM; in experiment [1] (setting [4]) it was over 20 µM; in experiment [1] (setting [5]), over 20 µM; in experiment [1] (setting [6]) it was 10 to 20 µM; in experiment [1] (setting [7]), over 20 µM.
Take `COc1ccc2c(c1)CCN(CCNC(=O)C1CCN(c3ccc(C(F)(F)F)cn3)CC1)C2` [Compound 22, N-(2-(6-methoxy-3,4-dihydroisoquinolin-2(19)-yl)ethyl)-1-(5-(trifluoromethyl)pyridin-2-yl)piperidine-4-carboxamide]: the IC50 was at most 10 µM in experiment [1] (setting [3]); over 20 µM in experiment [1] (setting [4]); over 20 µM in experiment [1] (setting [5]); over 20 µM in experiment [1] (setting [6]); over 20 µM in experiment [1] (setting [7]).
For the compound `COc1ccc2c(c1)CCN(CCCNC(=O)C1CCN(c3ccc(C#N)cc3)CC1)C2` [Compound 26], the half-maximal inhibitory concentration (IC50) in experiment [1] (setting [3]) was at most 10 µM; in experiment [1] (setting [4]) it was over 20 µM; in experiment [1] (setting [5]), over 20 µM; in experiment [1] (setting [6]), 10 to 20 µM; in experiment [1] (setting [7]), at most 10 µM.
